Test results published in paper PMC4638363, “Linear Interaction Energy Based Prediction of Cytochrome P450 1A2 Binding Affinities with Reliability Estimation” (PLoS ONE, 2015).
Like-named read-outs stand apart in the source and are kept apart here.

How the values were obtained:
[1] = tested on: recombinant CYP 1A2
[2] = molecular target: T1, human CYP 1A2 (Homo sapiens, UniProt P05177)
T1 sequence (P05177 1-516): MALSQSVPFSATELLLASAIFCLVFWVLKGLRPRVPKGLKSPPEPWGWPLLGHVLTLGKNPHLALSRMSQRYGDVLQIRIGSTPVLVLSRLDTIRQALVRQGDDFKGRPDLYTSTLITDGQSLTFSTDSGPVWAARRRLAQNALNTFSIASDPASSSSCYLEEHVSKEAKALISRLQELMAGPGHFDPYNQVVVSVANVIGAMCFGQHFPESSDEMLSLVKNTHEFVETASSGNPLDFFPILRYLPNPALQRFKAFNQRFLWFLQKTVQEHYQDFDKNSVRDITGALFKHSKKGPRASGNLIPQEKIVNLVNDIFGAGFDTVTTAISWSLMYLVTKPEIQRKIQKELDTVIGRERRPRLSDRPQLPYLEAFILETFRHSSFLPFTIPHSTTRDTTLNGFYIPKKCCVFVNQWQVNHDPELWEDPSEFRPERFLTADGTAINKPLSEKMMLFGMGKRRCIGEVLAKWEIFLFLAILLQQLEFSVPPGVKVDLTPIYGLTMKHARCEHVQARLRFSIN

[3] = tested on: recombinant CYP 1A2; conditions: cited from earlier work
[4] = tested on: recombinant CYP 1A2; conditions: from literature IC50, Source 3
[5] = tested on: CYP 1A2; conditions: Table A, Source 1; ref Bayer HealthCare databases for CYP inhibition (eTOX); cited from earlier work
[6] = tested on: CYP 1A2; conditions: literature; cited from earlier work
[7] = molecular target: T1, human CYP 1A2; experiment: in-house CYP 1A2 inhibition assay with 7-methoxyresorufin as substrate (resorufin fluorescence); conditions: for ΔΔG bind: difference in ΔG bind between literature and in-house determined values; for ΔG bind (inhouse): from in-house IC50 via Cheng-Prusoff and RTln(Ki)
[8] = Table A, Source 3, ref Korhonen et al., J. Med. Chem. 2005
[9] = read-out: IC 50 (lit), Source 3, recombinant CYP 1A2, 7-ethoxyresorufin O-dealkylation

Cc1ccc2cc(C)ccc2c1 [Compound 42, 2,6-Dimethylnaphthalene]
ΔGbind^Obs ([1]; human): -6.29 kcal/mol | Residual (ΔGbind^Obs—ΔGbind^Calc) [2]: -0.454 kcal/mol | IC50 [3]: 52 µM

c1ccc(-c2ccccc2)cc1 [Compound 65, Biphenyl]
ΔGbind^Obs ([1]; human): -5.62 kcal/mol | Residual (ΔGbind^Obs—ΔGbind^Calc) [2]: -0.12 kcal/mol | IC50 [3]: 160 µM

Cc1cc(C)oc(=O)c1 [Compound 72, 4,6-Dimethyl-α-pyron]
Residual (ΔGbind^Obs—ΔGbind^Calc) [2]: 1.05 kcal/mol | IC50 [3]: 4500 µM | ΔGbind^Obs ([4]; training set): -3.63 kcal/mol

Cc1ccc2cccc(C)c2c1 [Compound 41, 1,7-Dimethylnaphthalene]
ΔGbind^Obs ([1]; human): -7.46 kcal/mol | Residual (ΔGbind^Obs–ΔG bind ^Calc), error in prediction ([2]; test set): -1.46 kcal/mol | IC50 [3, 8]: 7.5 µM

c1ccc2c(c1)CCO2 [Compound 62, 2,3-Dihydrobenzofuran]
Residual (ΔGbind^Obs—ΔGbind^Calc) ([2]; training set): -0.096 kcal/mol | IC50 [3, 8]: 1200 µM | ΔGbind^Obs ([4]; training set): -4.42 kcal/mol

O=C1CCC(c2ccccc2)O1 (centres unmarked) [Compound 70, γ-Phenyl-γ-butyrolactone]
ΔGbind^Obs [1]: -4.04 kcal/mol | Residual (ΔGbind^Obs—ΔGbind^Calc) ([2]; training set): 1.36 kcal/mol | IC50 [3, 8]: 2300 µM

CC1CCC(=O)O1 (centres unmarked) [Compound 51, γ-Valerolactone]
ΔGbind^Obs [1]: -2.92 kcal/mol | Residual (ΔGbind^Obs—ΔGbind^Calc) [2]: 0.86 kcal/mol | IC50 [3, 8]: 15000 µM

N[C@@H]1C[C@H]1c1ccccc1 (racemic) [Compound 15, Tranylcypromine]
IC50 [5]: 10.4 µM

Cc1ccc2c(C)cccc2c1 [Compound 40, 1,6-Dimethylnaphthalene]
ΔGbind^Obs ([1]; human): -6.74 kcal/mol | Residual (ΔGbind^Obs–ΔG bind ^Calc), error in prediction ([2]; test set): -0.454 kcal/mol | IC50 [3, 8]: 25 µM

C#C[C@]1(O)CC[C@H]2[C@@H]3CCC4=Cc5oncc5C[C@]4(C)[C@H]3CC[C@@]21C [Compound 21, Danazol]
IC50 [5]: 45.3 µM

COC(=O)[C@H](c1ccccc1Cl)N1CCc2sccc2C1 [Compound 19, Clopidogrel]
IC50 [5]: 24.2 µM | Reported inhibition mechanism [6]: Substrate^69

Fc1ccc([C@@H]2CCNC[C@H]2COc2ccc3c(c2)OCO3)cc1 [Compound 18, Paroxetine]
IC50 [5]: 23.5 µM

O=C1Cc2ccccc2O1 [Compound 60, 2-Coumarone]
ΔGbind^Obs [1]: -5.33 kcal/mol | Residual (ΔGbind^Obs—ΔGbind^Calc) ([2]; training set): -0.263 kcal/mol | IC50 [3, 8]: 260 µM

CCC1CCC(=O)O1 (centres unmarked) [Compound 52, γ-Caprolactone]
ΔGbind^Obs ([1]; human): -3.15 kcal/mol | Residual (ΔGbind^Obs—ΔGbind^Calc) [2]: 0.956 kcal/mol | IC50 [3]: 9900 µM

Oc1cccc2ccccc12 [Compound 9, 1-naphthol]
ΔG bind (lit) ([1]; human): -7.96 ± 0.14 kcal/mol | ΔGbind^Obs ([1]; human): -7.96 kcal/mol | Residual (ΔGbind^Obs–ΔG bind ^Calc), error in prediction [2]: -2.77 kcal/mol | IC50 [3, 9]: 3.2 ± 0.8 µM | IC50 [7]: 2 ± 0.7 µM | ΔΔG bind [7]: 0.287 kcal/mol | ΔG bind (inhouse) [7]: -8.25 ± 0.22 kcal/mol

COC1=CC(=O)OC1 [Compound 71, 4-Methoxyfuran-2-(5H)-one]
Residual (ΔGbind^Obs–ΔG bind ^Calc), error in prediction ([2]; test set): 1.34 kcal/mol | IC50 [3]: 40000 µM | ΔGbind^Obs ([4]; test set): -2.32 kcal/mol

CN1C(=O)CC[C@H]1c1cccnc1 [Compound 73, Cotinine]
Residual (ΔGbind^Obs—ΔGbind^Calc) ([2]; training set): 1.84 kcal/mol | IC50 [3, 8]: 5400 µM | ΔGbind^Obs ([4]; training set): -3.51 kcal/mol

Clc1ccccc1-c1ccccc1 [Compound 66, 2-Chlorobiphenyl]
ΔGbind^Obs ([1]; human): -5.4 kcal/mol | Residual (ΔGbind^Obs–ΔG bind ^Calc), error in prediction ([2]; test set): 0.669 kcal/mol | IC50 [3, 8]: 230 µM

Cc1ccc(C)c2ccccc12 [Compound 36, 1,4-Dimethylnaphthalene]
ΔGbind^Obs ([1]; human): -7.89 kcal/mol | Residual (ΔGbind^Obs—ΔGbind^Calc) ([2]; training set): -1.77 kcal/mol | IC50 [3, 8]: 3.6 µM

Fc1ccc2ccccc2c1 [Compound 32, 2-Fluoronaphthalene]
Residual (ΔGbind^Obs—ΔGbind^Calc) ([2]; training set): -1.34 kcal/mol | IC50 [3, 8]: 49 µM | ΔGbind^Obs ([4]; training set): -6.33 kcal/mol

CCCCC1CCCCC1 [Compound 68, Butylcyclohexane]
Residual (ΔGbind^Obs—ΔGbind^Calc) ([2]; training set): 0.526 kcal/mol | IC50 [3, 8]: 55 µM | ΔGbind^Obs ([4]; training set): -6.26 kcal/mol

Cc1cccc2ccccc12 [Compound 28, 1-Methylnaphthalene]
ΔGbind^Obs ([1]; human): -5.86 kcal/mol | Residual (ΔGbind^Obs—ΔGbind^Calc) ([2]; training set): -0.502 kcal/mol | IC50 [3, 8]: 110 µM

Cc1ccc2ccccc2n1 [Compound 44, Quinaldine]
IC50 [3, 8]: 40 µM

c1ccc2ccccc2c1 [Compound 27, Naphthalene]
Residual (ΔGbind^Obs—ΔGbind^Calc) [2]: -0.55 kcal/mol | IC50 [3, 8]: 700 µM | ΔGbind^Obs ([4]; training set): -4.73 kcal/mol

Cc1cc(C)c2ccccc2n1 [Compound 46, 2-4-Dimethylquinoline]
IC50 [3]: 2.4 µM

Cc1ccc2ccc(C)cc2c1 [Compound 43, 2,7-Dimethylnaphthalene]
ΔGbind^Obs ([1]; human): -6.17 kcal/mol | Residual (ΔGbind^Obs–ΔG bind ^Calc), error in prediction ([2]; test set): 0 kcal/mol | IC50 [3, 8]: 65 µM

O=c1[nH]c2ccccc2o1 [Compound 64, 2-Benzoxazolinone]
ΔGbind^Obs ([1]; human): -5.11 kcal/mol | Residual (ΔGbind^Obs—ΔGbind^Calc) ([2]; training set): 0.19 kcal/mol | IC50 [3, 8]: 370 µM

COc1ccc(C=O)cc1 [Compound 11, p-methoxybenzaldehyde]
ΔG bind (lit) [1]: -5.31 ± 0.19 kcal/mol | ΔGbind^Obs [1]: -5.31 kcal/mol | Residual (ΔGbind^Obs–ΔG bind ^Calc), error in prediction [2]: -0.43 kcal/mol | IC50 [3, 9]: 270 ± 85 µM | ΔΔG bind [7]: -0.239 kcal/mol | ΔG bind (inhouse) [7]: -5.07 ± 0.048 kcal/mol | IC50 ([7]; read-out: IC 50 (inhouse)): 410 ± 32 µM

CCc1ccc2ccccc2c1 [Compound 31, 2-Ethylnaphthalene]
ΔGbind^Obs ([1]; human): -6.91 kcal/mol | Residual (ΔGbind^Obs–ΔG bind ^Calc), error in prediction ([2]; test set): -0.789 kcal/mol | IC50 [3, 8]: 19 µM

Cc1cnc2ccccc2c1 [Compound 45, 3-Methylquinoline]
IC50 [3, 8]: 13 µM

Cc1cc2ccccc2cn1 [Compound 49, 3-Methylisoquinoline]
IC50 [3, 8]: 21 µM

Clc1cccc2ccccc12 [Compound 29, 1-Chloronaphthalene]
ΔGbind^Obs ([1]; human): -6.31 kcal/mol | Residual (ΔGbind^Obs–ΔG bind ^Calc), error in prediction [2]: -0.932 kcal/mol | IC50 [3, 8]: 50 µM

Clc1ccc(-c2ccccc2)cc1 [Compound 67, 4-Chlorobiphenyl]
ΔGbind^Obs ([1]; human): -6.33 kcal/mol | Residual (ΔGbind^Obs—ΔGbind^Calc) [2]: 0.024 kcal/mol | IC50 [3, 8]: 49 µM

Cc1cccc2c(C)cccc12 [Compound 39, 1,5-Dimethylnaphthalene]
ΔGbind^Obs ([1]; human): -6.43 kcal/mol | Residual (ΔGbind^Obs–ΔG bind ^Calc), error in prediction [2]: -0.478 kcal/mol | IC50 [3]: 42 µM

CCCCc1ccccc1 [Compound 69, Butylbenzene]
ΔGbind^Obs ([1]; human): -3.75 kcal/mol | Residual (ΔGbind^Obs–ΔG bind ^Calc), error in prediction ([2]; test set): 1.43 kcal/mol | IC50 [3, 8]: 3700 µM

c1ccc2c(c1)CCC2 [Compound 63, Indan]
ΔGbind^Obs ([1]; human): -4.88 kcal/mol | IC50 [3]: 550 µM

Cc1ccc2ccccc2c1 [Compound 30, 2-Methylnaphthalene]
ΔGbind^Obs ([1]; human): -5.78 kcal/mol | Residual (ΔGbind^Obs—ΔGbind^Calc) [2]: -0.789 kcal/mol | IC50 [3]: 120 µM

Clc1ccccc1C(c1ccccc1)(c1ccccc1)n1ccnc1 [Compound 22, Clotrimazole]
IC50 [5]: 5.83 µM
